In ChEMBL document CHEMBL1121895, “Pyrazolodiazepines. 3. 4-Aryl-1,6,7,8-tetrahydro-1,3-dialkylpyrazolo[3,4-e][1,4]diazepines as antidepressant agents” (1981):

Key:
Format in all cases: functional
[1] = species: Rattus norvegicus; assay: Time-related potentiation of methamphetamine-induced anorexia in rats at the lowest active dose.; details: read-out: MED
[2] = species: Rattus norvegicus; assay: Potentiation of Methamphetamine effect for intracranial self stimulation(SS) in rats
[3] = tested on: Rattus norvegicus; assay: Amount of milk ingested after the 120 min methamphetamine-challenges, produced by the compound at 1.25 mg/kg in fasted rats
[4] = tested on: Rattus norvegicus; assay: Amount of milk ingested after the 120 min methamphetamine-challenges, produced by the compound at 10 mg/kg in fasted rats
[5] = tested on: Rattus norvegicus; assay: Amount of milk ingested after the 120 min methamphetamine-challenges, produced by the compound at 0.312 mg/kg in fasted rats
[6] = tested on: Rattus norvegicus; assay: Amount of milk ingested after the 120 min methamphetamine-challenges, produced by the compound at 2.5 mg/kg in fasted rats
[7] = tested on: Rattus norvegicus; assay: Amount of milk ingested after the 120 min methamphetamine-challenges, produced by the compound at 5 mg/kg in fasted rats
[8] = tested on: Rattus norvegicus; assay: Amount of milk ingested after the 15 min methamphetamine-challenges, produced by the compound at 0.312 mg/kg in fasted rats
[9] = tested on: Rattus norvegicus; assay: Amount of milk ingested after the 15 min methamphetamine-challenges, produced by the compound at 0.625 mg/kg in fasted rats
[10] = tested on: Rattus norvegicus; assay: Amount of milk ingested after the 15 min methamphetamine-challenges, produced by the compound at 1.25 mg/kg in fasted rats
[11] = tested on: Rattus norvegicus; assay: Amount of milk ingested after the 15 min methamphetamine-challenges, produced by the compound at 10 mg/kg in fasted rats
[12] = tested on: Rattus norvegicus; assay: Amount of milk ingested after the 15 min methamphetamine-challenges, produced by the compound at 2.5 mg/kg in fasted rats
[13] = tested on: Rattus norvegicus; assay: Amount of milk ingested after the 15 min methamphetamine-challenges, produced by the compound at 5 mg/kg in fasted rats
[14] = tested on: Rattus norvegicus; assay: Amount of milk ingested after the 120 min methamphetamine-challenges, produced by the compound at 0.625 mg/kg in fasted rats

Row | SMILES | minimal effective dose [1] [mg/kg] | also measured
1 | CCc1nn(C)c2c1C(c1cccc(F)c1)=NCCN2 | 2.5 | 
2 | Cc1nn(C)c2c1C(c1cccc(Cl)c1)=NCCN2CCCN(C)C | > 10 | 
3 | Cc1nn(C)c2c1C(c1cccc(Cl)c1)=NCCN2 [ZOMETAPINE] | 0.63 | Dose [2]: 1.25 mg/kg; Amount [3]: 0.2 mL; Amount [4]: 0.1 mL; Amount [5]: 3.6 mL; Amount [6]: 0.2 mL; Amount [7]: 0.1 mL; Amount [8]: 4.2 mL; Amount [9]: 1.1 mL; Amount [10]: 1.7 mL; Amount [11]: 0 mL; Amount [12]: 0 mL; Amount [13]: 0.1 mL; Amount [14]: 0.5 mL
4 | Cc1nn(C)c2c1C(c1cccc(Cl)c1)=NCC1CCCCN21 (centres undefined) | 2.5 | 
5 | Cc1nn(C)c2c1C(c1cccc(N)c1)=NCCN2 | 2.5 | 
6 | CCc1nn(C)c2c1C(c1cccc(C)c1)=NCCN2 | 5 | 
7 | Cc1nn(C)c2c1C(c1cccc(C#N)c1)=NCCN2 | 1.25 | 
8 | Cc1cc(C)cc(C2=NCCNc3c2c(C)nn3C)c1 | > 10 | 
9 | Cc1nn(C)c2c1C(c1ccc(Cl)cc1)=NCCN2 | 2.5 | 
10 | Cc1nn(C)c2c1C(c1cccc(O)c1)=NCCN2 | 2.5 | Dose [2]: 10 mg/kg
11 | Cc1nn(C)c2c1C(c1cccc(Cl)c1)=NCCN2N=O | 1.25 | 
12 | COc1cc(OC)cc(C2=NCCNc3c2c(C)nn3C)c1 | 2.5 | Dose [2]: 10 mg/kg
13 | Cc1nn(C)c2c1C(c1ccccc1Cl)=NCCN2CCCN(C)C | > 10 | 
14 | Cc1nn(C)c2c1C(c1ccccc1)=NC(C)C(C)N2 (centres undefined) | 10 | 
15 | Cc1ccc(C2=NCCN(CCCN(C)C)c3c2c(C)nn3C)cc1 | > 10 | 
16 | Cc1nn(C)c2c1C(c1cccc(Cl)c1)=NC(C)(C)CN2 | 2.5 | Dose [2]: 10 mg/kg
17 | CCn1nc(C)c2c1NCCN=C2c1cccc(C(F)(F)F)c1 | 0.63 | 
18 | Cc1cccc(C2=NC(C)(C)CNc3c2c(C)nn3C)c1 | > 10 | 
19 | Cc1nn(C)c2c1C(c1cccc(F)c1)=NCCN2CCCN(C)C | > 10 | 
20 | Cc1nn(C)c2c1C(c1cccc(F)c1)=NCCN2 | 2.5 | Dose [2]: 2.5 mg/kg
21 | CCn1nc(C)c2c1N(C)CCN=C2c1ccccc1Cl | 5 | Dose [2]: >10 mg/kg
22 | Cc1nn(C)c2c1C(c1cccc(C(F)(F)F)c1)=NCCN2 | 0.63 | Dose [2]: 1.25 mg/kg
23 | Cc1ccc(C2=NCCNc3c2c(C)nn3C)cc1 | 2.5 | 
24 | CC(=O)N1CCN=C(c2cccc(Cl)c2)c2c(C)nn(C)c21 | > 10 | 
25 | Cc1nn(C)c2c1C(c1ccccc1)=NCCN2CCCN(C)C | > 10 | 
